Laboratory results taken from patent US4879220A (priority 1986, dated 1989).

Columns and labels:
[1] = system: human foreskin fibroblasts; experiment: Morphology and attachment of cultured fibroblasts on exposure to probe or ligand; assay type: cell-based
Experimental: Human foreskin fibroblasts were cultured to subconfluency on glass discs placed in culture dishes using Dulbecco's modified Eagle's medium (Gibco Laboratories, Grand Island, NY, U.S.A.). For labeling with glucose-GAP, glass discs with attached fibroblasts were removed from the culture dishes and washed twice with HBS. The cells were then exposed to fresh HBS (experimental) or HBS containing 400 mM glucose or 0.4 uM cytochalasin B (controls) for 5 min at room temperature. […] Cytochem. […] The discs were then placed in a drop of HBS and irradiated on ice as described above for erythrocytes. For labeling with ouabain-GAP cells grown in culture dishes were washed twice with HBS and exposed to HBS containing 400 mM glucose (experimental) or HBS containing 400 mM glucose plus 2 mM ouabain (control) for 15 min at 37° C. An equal volume of ouabain-GAP was then added followed by incubation for 30 min in the dark at room temperature. At this point, the presence of ouabain or ouabain-GAP caused the cells to detach from the substrate. The cells were recovered and unbound probe was removed by centrifugation in HBS. Cells were resuspended in fresh HBS and irradiated for 15 min in a water-jacketed cell at 4° C. using the light source described above.

ATPase = conditions: ouabain-ATPase complex; Erdmann and Hasse; read-out: dissociation constant; cited from earlier work
glucose transporter = target: T1, glucose transporter (Homo sapiens, UniProt P11166); conditions: glucose-glucose transporter complex; Sogin and Hinkle; read-out: dissociation constant; cited from earlier work
T1 construct: intact human erythrocytes labeled with the glucose transporter-specific probe (glucose-GAP); endogenous in cells; host or cells: human erythrocytes
T1 sequence (P11166 1-492): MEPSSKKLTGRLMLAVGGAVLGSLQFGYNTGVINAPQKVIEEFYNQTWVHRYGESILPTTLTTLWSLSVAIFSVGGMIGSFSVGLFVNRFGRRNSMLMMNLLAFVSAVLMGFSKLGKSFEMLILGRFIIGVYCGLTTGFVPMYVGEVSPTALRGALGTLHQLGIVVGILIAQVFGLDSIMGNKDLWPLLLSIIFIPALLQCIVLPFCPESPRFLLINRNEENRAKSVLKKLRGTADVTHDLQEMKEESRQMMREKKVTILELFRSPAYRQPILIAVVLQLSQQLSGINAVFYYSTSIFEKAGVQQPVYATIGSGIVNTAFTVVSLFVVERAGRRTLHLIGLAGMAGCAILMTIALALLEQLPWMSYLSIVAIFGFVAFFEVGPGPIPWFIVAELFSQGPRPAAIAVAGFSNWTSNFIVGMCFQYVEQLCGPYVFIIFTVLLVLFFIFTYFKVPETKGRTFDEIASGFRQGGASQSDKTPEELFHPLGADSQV

| Compound | morphological response of fibroblasts [1] | Kd (ATPase) | Kd (glucose transporter) |
| --- | --- | --- | --- |
| C[C@@H]1O[C@@H](O[C@H]2C[C@@H](O)[C@]3(CO)[C@H]4[C@H](O)C[C@]5(C)[C@@H](C6=CC(=O)OC6)CC[C@]5(O)[C@@H]4CC[C@]3(O)C2)[C@H](O)[C@H](O)[C@H]1O [ouabain] | caused the cells to lift from the substrate and take on a rounded morphology | 2.8 nM |  |
| OC[C@H]1OC(O)[C@H](O)[C@@H](O)[C@@H]1O (stereo partly drawn) [glucose] |  |  | 50 mM |
